Columns and labels:
[1] = target: T1, G protein (Smg p21), molecular weight of 22,000, purified from bovine brain (Bos taurus, UniProt P62833); test: GTP binding activity of purified G protein (Smg p21)
T1 construct: a crude membrane fraction was extracted with sodium cholate from bovine brain; from tissue; host or cells: bovine brain (crude membrane fraction, cholate extract)
T1 sequence (P62833 1-181 limits assumed): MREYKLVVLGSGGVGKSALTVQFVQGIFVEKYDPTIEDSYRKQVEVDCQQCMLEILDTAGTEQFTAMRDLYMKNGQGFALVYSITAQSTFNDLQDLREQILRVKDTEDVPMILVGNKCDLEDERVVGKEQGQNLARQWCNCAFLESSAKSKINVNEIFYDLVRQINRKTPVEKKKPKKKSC
From the text: (§1) • (a) Crude G protein with molecular weight (relative molecular weight : Mr) of 20,000 to 25,000 was obtained in accordance with the method of Kikuchi, et al. (Journal of the Biological Chemistry, 263, p 2897 - 2904, 1988). Specifically, a crude membrane fraction was extracted with sodium cholate from bovine brain, and the fraction was fractionated on Ultrogel AcA-44 column chromatography to separate and obtain a fraction at the second peak among two peaks showing GTP binding activity. The fraction thus obtained was purified on phenyl Sepharose CL-4B column chromatography and then further fractionated on hydroxyapatite column chromatography to separate and obtain a fraction at the first peak. Then, the first peak fraction was fractionated on Mono Q HR 5/5 column chromatography and the fraction at the first peak was separated and collected to obtain a crude G protein with Mr of 20,000 - 25,000. • (b) The crude G protein obtained in (a) above was subjected to Mono S HR 5/5 column chromatography equilibrated with a buffer solution of 50 mM sodium acetate (pH, 5.0) containing 1 mM EDTA, 1mM dithiothreitol, 5 mM magnesium chloride and 0.6 % CHAPS (3- [(3-cholamidopropyl) dimethylammonio]-1-propane sulfonate). After washing with 5 ml of the same buffer solution, it was eluted out by the same buffer solution (20 ml) with a concentration gradient of sodium chloride (0 - 1.0 M). […]

[2] = target: T1, G protein (Smg p21), molecular weight of 22,000, purified from bovine brain; test: GTP hydrolyzing activity of purified G protein (Smg p21); format: biochemical
From the text: as §1

Kd ([1]; purified G protein (Smg p21) from bovine brain) [nM]	GTP Hydrolyzing Activity (number of turnovers) [2] [min⁻¹]	SMILES	Effect of N-ethylmaleimide on GTP Binding Activity ([1]; no concentration stated, presence of dithiothreitol blocks the inhibition)
30 ± 6	0.005	Nc1nc2c(ncn2[C@@H]2O[C@H](COP(=O)(O)OP(=O)(O)OP(=O)(O)O)[C@@H](O)[C@H]2O)c(=O)[nH]1 [GTP, guanosine-5-triphosphate]	–
–	–	CCN1C(=O)C=CC1=O [N-ethylmaleimide]	inhibited

From patent EP0346187B1, “Novel GTP binding protein and method for production thereof” (MITSUBISHI KASEI CORPORATION, priority 1988, dated 1989)
